The structures appear in SMILES notation.

Data on four compounds can be found in patent US9994848B2, “Pharmaceutical composition for preventing and teating endocrine disrupting chemicals-induced diseases and treating method using the same” (priority 2016, dated 2018).

The test system of data set [1] is 3T3-L1 adipocytes. Description: Oil Red O staining of 3T3-L1 adipocytes (adipocyte differentiation, total lipid content). The class given is cell-based, mouse. The note with it: for oil red O staining (adipocyte differentiation): PCBs 20 μM during DMI treatment, 3T3-L1 adipocytes. As to the method: (§1) 3T3-L1 mouse embryo fibroblasts, purchased from American Type Culture Collection (Manassas, Va., USA), were maintained in standard Dulbecco's modified Eagle's medium (DMEM; Gibco-BRL, Gaithersburg, Md., USA) supplemented with 10% fetal calf serum (FCS; Gibco-BRL, Gaithersburg, Md., USA) and 1% penicillin/streptomycin at 37° C. in a humidified 5% CO2 atmosphere. After confluence, 3T3-L1 cells were induced to differentiate using DMI induction medium (DMEM containing 10% FBS, 0.5 mM 3-isobutyl-1-methylxanthine, 0.5 μM dexamethasone, and 1 μg/ml insulin) for 2 days, followed by DMII (DMEM containing 10% FBS and 1 μg/ml insulin) for 2 days. The medium was subsequently replaced with fresh culture medium (DMEM with 10% FBS) every 2 days for 4 days. To define the effects of PCBs on adipocyte differentiation, we incubated preadipocytes with PCBs (PCB-77, PCB-118, PCB-138 or PCB-153) at equivalent concentrations (20 μM) during DMI treatment.
(§2) For the siRNA-mediated down-regulation of Fsp27, Fsp27-specific siRNA and negative control siRNA were purchased from Bioneer (Daejeon, Korea) and used at a concentration of 20 nM. 3T3-L1 mouse embryo fibroblasts were transfected with either the siRNA molecule specific for Fsp27 or a negative control siRNA using Lipofectamine® RNAiMAX per the manufacturer's instructions.
As previously described (Kim et al. 2015), cells were washed twice in phosphate buffered saline (PBS) and fixed for 1 h with 10% (w/v) formaldehyde in PBS. After two washes in 60% isopropyl alcohol, the cells were stained for 30 min in freshly diluted Oil Red O solution. Then, the stain was removed, and the cells were washed 4 times in water. After adding 100% 2-propanol at 500 nm, the absorbance of the eluted Oil Red O was measured in a spectrophotometer.

Data set [2] has as its system C57BL/6 mice. Description: Blood glucose, plasma insulin, GTT and ITT in PCB-administered mice. The class given is in vivo, mouse. As to conditions: for blood glucose level / plasma insulin level: 37.5 mg/kg ip; for amount of hyperglycemia in GTT: glucose 1 mg/g ip after 16 h fast; for efficiency of insulin in ITT: insulin 0.75 U/kg ip after 16 h fast. As to the method: (§3) Adult male C57BL/6 mice (8-week-old, 22-25 g) were purchased from SamTako Bio-Korea (Osan, Korea). The animals were maintained in a temperature-controlled room (22° C.) on a 12:12-h light-dark cycle. All procedures were approved by the Committee on Animal Investigations at Dong-A University. 12-week-old mice were administered vehicle (corn oil), PCB-118 or PCB-138 (37.5 mg/kg) by intraperitoneal (ip) injection for a total of three injections (2, 3 and 5 weeks) during the 6-week study duration. Mice were randomly divided into 3 groups of 10 animals each.
As previously described, intraperitoneal glucose tolerance tests (GTT) and insulin tolerance tests (ITT) were performed after the mice were fasted for 16 h. Plasma glucose concentrations were measured in tail blood using a GlucoDr Blood Glucose Test Strip (Hasuco, Seoul, South Korea) prior to and 30, 60, 90 and 120 minutes after intraperitoneally injecting a bolus of glucose (1 mg/g) for the GTT, and at the same time-points after intraperitoneally injecting 0.75 U/kg body weight insulin for the ITT.

In data set [3] the test system is p-Akt (Ser473) and p-PI3K p85 (Tyr458). Briefly: Western blot of insulin-induced p-Akt and p-PI3K p85 in 3T3-L1 adipocytes. The note with it: for insulin-induced upregulation of p-Akt (Ser473) and p-PI3K p85 (Tyr458): 3T3-L1 adipocytes. The class given is cell-based, mouse. Here is the method:
as §1
(§4) Cells and tissues were washed with ice-cold PBS, resuspended in 100 μL ice-cold RIPA buffer and incubated at 4° C. for 30 min. Lysates were centrifuged at 13,000 rpm for 30 min at 4° C. Equal amounts of proteins were subjected to 7.5-15% sodium dodecyl sulfate polyacrylamide gel electrophoresis. The proteins were transferred to a nitrocellulose membrane and reacted with each antibody. Immunostaining with antibodies was performed using the Super Signal West Pico (Thermo Scientific, Hudson, N.H., USA) enhanced chemiluminescence substrate and detected with LAS-3000 Plus (Fuji Photo Film, Tokyo, Japan). Quantification and normalization to actin or GAPDH control bands were performed using ImageJ 1.48q (NIH imaging software, Bethesda, Md., USA).
For orientation: Immunoblotting shows a protein as a band on a membrane.

The subject of data set [4] is C57BL/6 mice. Description: PCB exposure of C57BL/6 mice: adipose mass, adipocyte size, body and liver weight. The class given is in vivo, mouse. The note with it: 37.5 mg/kg ip, three injections, 6-week study. Here is the method: as §3
Epididymal white adipose tissues (eWAT) were fixed in 10% neutral buffered formalin and embedded in paraffin. Four-micrometer sections were prepared and stained with hematoxylin and eosin. The morphology of the […] was photographed using an Aperio ScanScope (Aperio Technologies, Vista, Calif., USA).

For data set [5], the system named is aP2, PPAR and C/EBP. Briefly: mRNA and protein levels of adipocyte differentiation markers in vitro. The class given is cell-based, mouse. As to the method: as §1, with “To define the effects of PCBs on adipocyte differentiation, we incubated preadipocytes with PCBs (PCB-77, PCB-118, PCB-138 or PCB-153) at equivalent concentrations (20 μM) during DMI treatment.” left out
(§5) Cells and tissues were washed with ice-cold PBS, resuspended in 100 μL ice-cold RIPA buffer and incubated at 4° C. for 30 min. […] Immunostaining with antibodies was performed using the Super Signal West Pico (Thermo Scientific, Hudson, N.H., USA) enhanced chemiluminescence substrate and detected with LAS-3000 Plus (Fuji Photo Film, Tokyo, Japan). Quantification and normalization to actin or GAPDH control bands were performed using ImageJ 1.48q (NIH imaging software, Bethesda, Md., USA).

The test system of data set [6] is Fsp27 and perilipin. Description: Western blot of LD-associated proteins in 3T3-L1 adipocytes. It is filed as cell-based, mouse. As to conditions: for protein expression levels of Fsp27 and perilipin: in vitro. As to the method: as §1, §4
Data set [7] relates to 3T3-L1 adipocytes. Description: Lipid droplet (LD) morphology and size in 3T3-L1 adipocytes (phase contrast, confocal microscopy). It is filed as cell-based, mouse. As to conditions: for large LD formation: 3T3-L1 adipocytes treated with PCBs. As to the method:
as §1, §2

Data set [8] relates to Fsp27 and perilipin. Description: Western blot of LD-associated proteins in PCB-administered mice. The note with it: in vivo. Also on record: species or system mouse. As to the method: as §3, §4
The test system of data set [9] is IRS1. Description: IRS1 protein and mRNA level in 3T3-L1 adipocytes. It is filed as cell-based, mouse. The note with it: correlated with reversal of Fsp27 upregulation, Western blot. As to the method: as §1, with “To define the effects of PCBs on adipocyte differentiation, we incubated preadipocytes with PCBs (PCB-77, PCB-118, PCB-138 or PCB-153) at equivalent concentrations (20 μM) during DMI treatment.” left out
as §5

The subject of data set [10] is adipocytes. Description: Accumulation of PCBs in adipocytes. The class given is cell-based.

As for `Clc1ccc(-c2ccc(Cl)c(Cl)c2)cc1Cl` [PCB-77, 3,3′,4,4′-tetrachlorobiphenyl], the “effect on the adipocyte differentiation” value in data set [1] (compared to PCB-118 and PCB-138, 20 μM) was “meager effect”.
In the case of `Clc1ccc(-c2cc(Cl)c(Cl)cc2Cl)cc1Cl` [PCB-118, 2,3′,4,4′,5-pentachlorobiphenyl], in data set [2], the blood glucose level result is “increased”, the plasma insulin level entry is reported as “increased”, the “amount of hyperglycemia in GTT” value was “increased” and the “efficiency of insulin in ITT” value is recorded as “reduced”. The “insulin-induced upregulation of p-Akt (Ser473) and p-PI3K p85 (Tyr458)” value in data set [3] is recorded as “impaired”. In data set [4], the “adipocyte size (eWAT)” value was “increased”, the adipose mass result is “increased”, the body weight result is on record as “without affecting” and the liver weight result is given as “without affecting”. In data set [5], the “mRNA and protein levels of aP2, PPAR and C/EBP (markers of adipocyte differentiation)” value was “increased”. Moreover, in [1], the “oil red O staining (adipocyte differentiation)” value was “significantly increased”. Besides, in data set [6] (3T3-L1 adipocytes), the “protein expression levels of Fsp27 and perilipin” value (shortened to “protein expression levels”) was “increased”. In addition, in [7], the “large LD formation” value was “promote large LD formation”. Moreover, in data set [8], the “protein expression levels” value is “increased”.
Regarding `Clc1cc(Cl)c(-c2ccc(Cl)c(Cl)c2Cl)cc1Cl` [PCB-138, 2,2′,3,4,4′,5′-Hexachlorobiphenyl], in [2], the blood glucose level entry is listed as “increased”, the plasma insulin level entry is recorded as “increased”, the “amount of hyperglycemia in GTT” value is “increased” and the “efficiency of insulin in ITT” value is “reduced”. Besides, in [3], the “insulin-induced upregulation of p-Akt (Ser473) and p-PI3K p85 (Tyr458)” value is “impaired”. Besides, in data set [4], the “adipocyte size (eWAT)” value is listed as “increased”, the adipose mass result is “increased”, the body weight entry is recorded as “without affecting” and the liver weight result is given as “without affecting”. Moreover, the “mRNA and protein levels of aP2, PPAR and C/EBP (markers of adipocyte differentiation)” value in [5] is “increased”. Further, the “oil red O staining (adipocyte differentiation)” value in data set [1] is listed as “significantly increased”. In data set [6] (3T3-L1 adipocytes), the “protein expression levels” value is on record as “increased”. In addition, the “large LD formation” value in data set [7] is given as “promote large LD formation”. Besides, the “protein expression levels” value in data set [8] is given as “increased”.
As to `CN(C)C(=N)N=C(N)N` [metformin, reference compound], the “IRS1 downregulation in adipocytes exposed to PCBs” value in [9] is on record as “reversal”. For the same compound, the “impairment by PCBs of the insulin-induced upregulation of p-Akt (Ser473) and p-PI3K p85 (Tyr458)” value in data set [3] (PCB-treated 3T3-L1 adipocytes) is on record as “reversed”. In [6] (3T3-L1 adipocytes, Western blot), the “expression level of Fsp27” value is “reduced”. For the same compound, the “PCB-induced upregulation of Fsp27 expression” value in data set [6] (PCB-treated 3T3-L1 adipocytes, Western blot) is recorded as “reversed”. The “accumulation of PCB-118 and PCB-138 in adipocytes” value in [10] is “reverted”. Further, the “PCB-induced LD enlargement” value in data set [7] (PCB-treated 3T3-L1 adipocytes, phase contrast microscopy) is recorded as “reversed”.
